The text below walks through data of ChEMBL document CHEMBL1125233, “2,4-Diamino-5-benzylpyrimidines as antibacterial agents. 14. 2,3-Dihydro-1-(2,4-diamino-5-pyrimidyl)-1H-indenes as conformationally restricted analogues of trimethoprim” (J Med Chem, 1991).

For assay [1], the target named is T1, Dihydrofolate reductase (Rattus norvegicus, UniProt Q920D2).
T1 sequence (Q920D2 whole entry): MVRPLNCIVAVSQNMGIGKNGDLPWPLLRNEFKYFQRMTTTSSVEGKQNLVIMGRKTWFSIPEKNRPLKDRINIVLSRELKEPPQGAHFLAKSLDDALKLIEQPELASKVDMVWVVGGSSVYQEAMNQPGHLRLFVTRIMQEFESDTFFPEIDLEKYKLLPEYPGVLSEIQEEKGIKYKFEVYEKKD
Nature of the assay: Inhibitory activity against rat liver dihydrofolate reductase at 10e8 M. Particulars: read-out: I50.

For assay [2], the target named is Dihydrofolate reductase (Neisseria gonorrhoeae, UniProt P04174). In words: Inhibitory activity against Neisseria gonorrhoeae dihydrofolate reductase at 10e8 M. Particulars: read-out: I50.
Sequence of Dihydrofolate reductase (Neisseria gonorrhoeae, UniProt P04174) (P04174 whole entry): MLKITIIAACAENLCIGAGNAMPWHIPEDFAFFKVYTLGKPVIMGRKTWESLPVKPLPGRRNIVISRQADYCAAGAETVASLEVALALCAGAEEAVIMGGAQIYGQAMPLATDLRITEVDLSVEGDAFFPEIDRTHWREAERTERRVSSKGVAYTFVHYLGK

For `COc1cc2c(cc1OC)C(c1cnc(N)nc1N)CC2` (stereo not drawn), the IC50 in assay [1] turned out to be 410 µM; in assay [2], 9.7 µM.
Consider `COc1ccc(Cc2cnc(N)nc2N)cc1OC` [DIAVERIDINE], for which the IC50 in assay [1] is 70 µM.
